Test [1] concerns Umbelopsis ramanniana. Nature of the test: Antifungal activity against Mortierella ramanniana at 160 ug/disk. The test is classed as functional, organism-based.
The test system of test [2] is P388. Nature of the test: Cytotoxicity against mouse P388 cells at 5 ug/mL. The class given is functional, cell-based.
Test [3] has as its system Umbelopsis ramanniana. Nature of the test: Antifungal activity against Mortierella ramanniana at 5 ug/disk. The test is classed as functional, organism-based.
Test [4] deals with P388. Nature of the test: Cytotoxicity against mouse P388 cells. The test is classed as functional, cell-based.

Calls of active or inactive are those of the source. No cut-off for these calls is given here.

We go through two compounds from ChEMBL document CHEMBL1151678, “Halicylindramides D and E, antifungal peptides from the marine sponge Halichondria cylindrata” (J Nat Prod, 1996).

For the compound `CC(C)[C@@H](NC(=O)[C@@H]1CCCN1C(=O)[C@H](Cc1ccc(Br)cc1)NC(=O)[C@@H](C)NC=O)C(=O)N[C@H](C(=O)N[C@H](Cc1c[nH]c2ccccc12)C(=O)N[C@@H](CCCNC(=N)N)C(=O)N[C@H](CS(=O)(=O)O)C(=O)N[C@H](C(=O)N(C)[C@@H](CCC(N)=O)C(=O)N[C@H](Cc1ccccc1)C(N)=O)[C@@H](C)O)C(C)(C)C`, the result in test [1] was Active. Further, in test [2], the outcome was inactive.
As to `CC(C)[C@H](NC(=O)[C@H](NC(=O)[C@@H]1CCCN1C(=O)[C@H](Cc1ccc(Br)cc1)NC(=O)[C@@H](C)NC=O)C(C)C)C(=O)N[C@H](Cc1c[nH]c2ccccc12)C(=O)N[C@@H](CCCNC(=N)N)C(=O)N[C@H](CS(=O)(=O)[O-])C(=O)N[C@@H]1C(=O)N(C)[C@@H](CCC(N)=O)C(=O)N[C@H](Cc2ccccc2)C(=O)NCC(=O)N[C@H](CC(N)=O)C(=O)O[C@@H]1C.[Na+]` [HALICYLINDRAMIDE D], in test [3], the outcome was Active. The half-maximal inhibitory concentration (IC50) in test [4] turned out to be 2.1 µg/mL.
